The values that follow are results of earlier work, collected in US6362183B1, “Aromatic sulfonyl alpha-hydroxy hydroxamic acid compounds” (G. D. Searle & Company, priority 1997, dated 2002).

This data set deals with advanced, rapidly progressive, treatment-refractory solid tumor cancers. The conditions noted are these: patients with colorectal, pancreatic, ovarian, prostate cancers; cited from earlier work.

For `CNC(=O)[C@@H](NC(=O)[C@H](CC(C)C)[C@H](O)C(=O)NO)C(C)(C)C` [marimastat], the “effect on cancer-specific antigens used as surrogate markers for biological activity” value is on record as “dose-related reduction in the rise of cancer-specific antigens”.
